This passage reports IC50 and Ratio IC50 results from ChEMBL document CHEMBL2086306, “Manadosterols A and B, sulfonated sterol dimers inhibiting the Ubc13-Uev1A interaction, isolated from the marine sponge Lissodendryx fibrosa” (J Nat Prod, 2012).

Assay [1] has as its target Ubiquitin-conjugating enzyme E2 N/Ubiquitin-conjugating enzyme E2 variant 1 (Homo sapiens, UniProt P61088+Q13404). Nature of the assay: Inhibition of recombinant human Ubc13-Uev1A interaction expressed in Escherichia BL21 after 1.5 hrs by ELISA.
Assay [2] has as its target Ubiquitin-conjugating enzyme E2 N/Ubiquitin-conjugating enzyme E2 variant 1 (Homo sapiens) (UniProt Q13404+P61088). The experiment in a line: Ratio of leucettamol A IC50 to compound IC50 for recombinant human Ubc13-Uev1A interaction expressed in Escherichia BL21.

For the compound `C=C1CC(C)(C)[C@@H](/C=C/[C@@H](C)[C@H]2CC[C@H]3[C@@H]4C[C@H](OS(=O)(=O)O)[C@H]5C[C@@H](O)CC[C@]5(C)[C@H]4CC[C@]23C)[C@H]1CC(O)[C@@H](C)[C@H]1CC[C@H]2[C@@H]3C[C@H](OS(=O)(=O)O)[C@H]4C[C@H](OS(=O)(=O)O)[C@@H](OS(=O)(=O)O)C[C@]4(C)[C@H]3CC[C@]12C` (stereo partly drawn) [MANADOSTEROL B], the 50% inhibitory concentration (IC50) in assay [1] turned out to be 130 nM.
Consider `CC1=CC(C)(C)[C@@H](/C=C\[C@@H](C)[C@H]2CC[C@H]3[C@@H]4C[C@H](OS(=O)(=O)O)[C@H]5C[C@H](O)[C@@H](OS(=O)(=O)O)C[C@]5(C)[C@H]4CC[C@]23C)[C@H]1CC[C@@H](C)[C@H]1CC[C@H]2[C@@H]3C[C@H](OS(=O)(=O)O)[C@H]4C[C@H](OS(=O)(=O)O)[C@@H](OS(=O)(=O)O)C[C@]4(C)[C@H]3CC[C@]12C` [MANADOSTEROL A], for which the Ratio IC50 in assay [2] stood at 1000. Moreover, in assay [1], the IC50 came out at 90 nM.
